Test results as given in patent US10457710B2, “Antimicrobial peptides, their variants and uses” (priority 2015, dated 2019).
Where a SMILES comes first, the peptide text is derived from it. [ ]: non-standard residue; d: D form.

Tests used:
Format in all cases: cell-based
[1] = test system: clinical strains of A. johnsonii; assay: MIC, microdilution, clinical strains; parameters: unit: μg/ml; details: Acinetobacter johnsonii strain 1, Muller Hinton broth-cation adjusted, 0.02% BSA, 0.2% acetic acid
How it was run: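 Overnight MH agar colonies were suspended in MH broth to 5.0×10^5 cfu/ml, mixed with serial peptide dilutions (0.125–128 μg/ml) and incubated at 37° C for 20 to 24 hours. Yeast MICs were run the same way in potato dextrose broth, and wells were scored visually.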

[2] = test system: clinical strains of Acinetobacter baumannii; assay: MIC, microdilution, clinical strains; parameters: unit: μg/ml; details: 0.02% BSA, 0.2% acetic acid
How it was run: (§1)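 MIC = lowest peptide concentration without visual growth after 20–24 h at 37° C. Range 0.125–128 μg/ml, inoculum 5.0×10^5 cfu/ml, microdilution format. Antifungal tests used potato dextrose broth; bacterial tests used MH broth.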

C. quillermondiae = assay: MIC, clinical yeast strains; details: clinical yeast strain 1; D-form peptide; concentrations tested 0.125 to 128 μg/ml
How it was run: (§2)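 Broth microdilution in Potato dextrose broth, inoculum 5.0×10^5 cfu/ml, peptide 0.125–128 μg/ml, incubated at 37 °C for 20–24 h; MIC taken as lowest concentration without visible growth. A. johnsonii clinical strains were tested the same way in Mueller Hinton broth.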

[3] = test system: clinical strains of S. pneumoniae; assay: MIC, microdilution, clinical strains; details: 0.02% BSA, 0.2% acetic acid
How it was run: as §1

[4] = test system: clinical strains of S. aureus; assay: MIC, microdilution, clinical strains; details: 0.02% BSA, 0.2% acetic acid
How it was run: as §1

[5] = test system: clinical strains of P. aeruginosa; assay: MIC, microdilution, clinical strains; details: 0.02% BSA, 0.2% acetic acid
How it was run: as §1

[6] = test system: clinical strains of K. pneumoniae; assay: MIC, microdilution, clinical strains; details: 0.02% BSA, 0.2% acetic acid
How it was run: as §1

[7] = test system: clinical strains of E. coli; assay: MIC, microdilution, clinical strains; details: microdilution, Muller Hinton broth-cation adjusted, 0.02% BSA, 0.2% acetic acid
How it was run: as §1

[8] = test system: clinical strains of Proteus mirabilis; assay: MIC, microdilution, clinical strains; details: 0.02% BSA, 0.2% acetic acid
How it was run: as §1

[9] = test system: clinical strains of Serratia marcescens; assay: MIC, microdilution, clinical strains; details: 0.02% BSA, 0.2% acetic acid
How it was run: as §1

[10] = test system: clinical strains of E. cloacae; assay: MIC, microdilution, clinical strains; details: 0.02% BSA, 0.2% acetic acid
How it was run: as §1

Candida albicans = assay: MIC, clinical yeast strains; details: D-form peptide, concentrations tested 0.125 to 128 μg/ml
How it was run: as §2

C. parapsilosis = assay: MIC, clinical yeast strains; details: D-form peptide, concentrations tested 0.125 to 128 μg/ml
How it was run: as §2

C. glabrata = assay: MIC, clinical yeast strains; details: D-form peptide, concentrations tested 0.125 to 128 μg/ml
How it was run: as §2

Structure (SMILES): CC[C@@H](C)[C@@H](NC(=O)[C@@H](CCSC)NC(=O)[C@@H](C)NC(=O)[C@@H](CCCNC(=N)N)NC(=O)[C@@H](Cc1c[nH]c2ccccc12)NC(=O)[C@@H](CCCCN)NC(=O)[C@H](N)CCCNC(=N)N)C(=O)N[C@H](CCCNC(=N)N)C(=O)N[C@H](CC(C)C)C(=O)N[C@H](Cc1c[nH]cn1)C(=O)N[C@H](C)C(=O)N[C@H](CCCCN)C(=O)N[C@H](CCCNC(=N)N)C(=O)N[C@H](CC(C)C)C(=O)N[C@H](CCCNC(=N)N)C(=O)N[C@H](CCCCN)C(=O)O [Chain104D] (H-[dR][dK][dW][dR][dA][dM][dI][dR][dL][dH][dA][dK][dR][dL][dR][dK]-OH)
- Minimum inhibitory concentration [1]: 8
- Minimum inhibitory concentration ([2]; Acinetobacter baumannii strain 1, Muller Hinton broth-cation adjusted): 16
- Minimum inhibitory concentration ([2]; Acinetobacter baumannii strain 2, Muller Hinton broth-cation adjusted): 8
- Minimum inhibitory concentration ([2]; Acinetobacter baumannii strain 3, Muller Hinton broth-cation adjusted): 8
- Minimum inhibitory concentration ([2]; Acinetobacter baumannii strain 4, Muller Hinton broth-cation adjusted): 4
- Minimum inhibitory concentration ([2]; Acinetobacter baumannii strain 5, Muller Hinton broth-cation adjusted): 8
- Minimum inhibitory concentration, C. quillermondiae strain 1 (C. quillermondiae): 4
- Minimum inhibitory concentration ([3]; Streptococcus pneumoniae strain 1, Muller Hinton broth-cation adjusted): 4
- Minimum inhibitory concentration ([3]; Streptococcus pneumoniae strain 2, Muller Hinton broth-cation adjusted): 2
- Minimum inhibitory concentration ([3]; Streptococcus pneumoniae strain 3, Muller Hinton broth-cation adjusted): 1
- Minimum inhibitory concentration ([3]; Streptococcus pneumoniae strain 4, Muller Hinton broth-cation adjusted): 4
- Minimum inhibitory concentration ([3]; Streptococcus pneumoniae strain 5, Muller Hinton broth-cation adjusted): 1
- Minimum inhibitory concentration ([4]; Staphylococcus aureus strain 1, Muller Hinton broth-cation adjusted): 4
- Minimum inhibitory concentration ([4]; Staphylococcus aureus strain 2, Muller Hinton broth-cation adjusted): 2
- Minimum inhibitory concentration ([4]; Staphylococcus aureus strain 3, Muller Hinton broth-cation adjusted): 4
- Minimum inhibitory concentration ([4]; Staphylococcus aureus strain 4, Muller Hinton broth-cation adjusted): 2
- Minimum inhibitory concentration ([4]; Staphylococcus aureus strain 5, Muller Hinton broth-cation adjusted): 4
- Minimum inhibitory concentration ([5]; Pseudomonas aeruginosa strain 1, Muller Hinton broth-cation adjusted): 4
- Minimum inhibitory concentration ([5]; Pseudomonas aeruginosa strain 2, Muller Hinton broth-cation adjusted): 2
- Minimum inhibitory concentration ([5]; Pseudomonas aeruginosa strain 3, Muller Hinton broth-cation adjusted): 4
- Minimum inhibitory concentration ([5]; Pseudomonas aeruginosa strain 4, Muller Hinton broth-cation adjusted): 2
- Minimum inhibitory concentration ([5]; Pseudomonas aeruginosa strain 5, Muller Hinton broth-cation adjusted): 1
- Minimum inhibitory concentration ([6]; Klebsiella pneumoniae strain 1, Muller Hinton broth-cation adjusted): 8
- Minimum inhibitory concentration ([6]; Klebsiella pneumoniae strain 2, Muller Hinton broth-cation adjusted): 4
- Minimum inhibitory concentration ([6]; Klebsiella pneumoniae strain 3, Muller Hinton broth-cation adjusted): 8
- Minimum inhibitory concentration ([6]; Klebsiella pneumoniae strain 4, Muller Hinton broth-cation adjusted): 16
- Minimum inhibitory concentration ([6]; Klebsiella pneumoniae strain 5, Muller Hinton broth-cation adjusted): 4
- Minimum inhibitory concentration ([7]; Escherichia coli strain 1): 4
- Minimum inhibitory concentration ([7]; Escherichia coli strain 2): 4
- Minimum inhibitory concentration ([7]; Escherichia coli strain 3): 4
- Minimum inhibitory concentration ([7]; Escherichia coli strain 4): 4
- Minimum inhibitory concentration ([7]; Escherichia coli strain 5): 4
- Minimum inhibitory concentration ([8]; Proteus mirabilis strain 1, Muller Hinton broth-cation adjusted): >128
- Minimum inhibitory concentration ([8]; Proteus mirabilis strain 2, Muller Hinton broth-cation adjusted): 32
- Minimum inhibitory concentration ([8]; Proteus mirabilis strain 3, Muller Hinton broth-cation adjusted): 128
- Minimum inhibitory concentration ([8]; Proteus mirabilis strain 4, Muller Hinton broth-cation adjusted): >128
- Minimum inhibitory concentration ([8]; Proteus mirabilis strain 5, Muller Hinton broth-cation adjusted): >128
- Minimum inhibitory concentration ([9]; Serratia marcescens strain 1, Muller Hinton broth-cation adjusted): >128
- Minimum inhibitory concentration ([9]; Serratia marcescens strain 2, Muller Hinton broth-cation adjusted): >128
- Minimum inhibitory concentration ([9]; Serratia marcescens strain 3, Muller Hinton broth-cation adjusted): >128
- Minimum inhibitory concentration ([9]; Serratia marcescens strain 4, Muller Hinton broth-cation adjusted): >128
- Minimum inhibitory concentration ([9]; Serratia marcescens strain 5, Muller Hinton broth-cation adjusted): 128
- Minimum inhibitory concentration ([10]; Enterobacter cloacae strain 1, Muller Hinton broth-cation adjusted): 4
- Minimum inhibitory concentration ([10]; Enterobacter cloacae strain 2, Muller Hinton broth-cation adjusted): 4
- Minimum inhibitory concentration ([10]; Enterobacter cloacae strain 3, Muller Hinton broth-cation adjusted): 8
- Minimum inhibitory concentration ([10]; Enterobacter cloacae strain 4, Muller Hinton broth-cation adjusted): 4
- Minimum inhibitory concentration ([10]; Enterobacter cloacae strain 5, Muller Hinton broth-cation adjusted): 2
- Minimum inhibitory concentration, Candida albicans strain 1 (Candida albicans; clinical yeast strain 1): 8
- Minimum inhibitory concentration, Candida albicans strain 2 (Candida albicans; clinical yeast strain 2): 8
- Minimum inhibitory concentration, Candida albicans strain 3 (Candida albicans; clinical yeast strain 3): 8
- Minimum inhibitory concentration, Candida albicans strain 4 (Candida albicans; clinical yeast strain 4): 8
- Minimum inhibitory concentration, Candida albicans strain 5 (Candida albicans; clinical yeast strain 5): 8
- Minimum inhibitory concentration, C. parapsilosis strain 1 (C. parapsilosis; clinical yeast strain 1): 4
- Minimum inhibitory concentration, C. parapsilosis strain 2 (C. parapsilosis; clinical yeast strain 2): 4
- Minimum inhibitory concentration, C. parapsilosis strain 3 (C. parapsilosis; clinical yeast strain 3): 4
- Minimum inhibitory concentration, C. parapsilosis strain 4 (C. parapsilosis; clinical yeast strain 4): 2
- Minimum inhibitory concentration, C. glabrata strain 1 (C. glabrata; clinical yeast strain 1): 8
- Minimum inhibitory concentration, C. glabrata strain 2 (C. glabrata; clinical yeast strain 2): 8
- Minimum inhibitory concentration, C. glabrata strain 3 (C. glabrata; clinical yeast strain 3): 8
- Minimum inhibitory concentration, C. glabrata strain 4 (C. glabrata; clinical yeast strain 4): 16
